# US11090319B2, “Therapeutic uses of pharmaceutical compositions comprising cyclic boronic acid ester derivatives” (Melinta Subsidiary Corp., priority 2010, dated 2021)
# Tested on: strains expressing KPC alone or in combination with additional beta-lactamases
# Assay: microbe, parasite or virus in culture
# Assay type: cell-based
# [1] = Enterobacter cloacae ECL1058, KPC-3, SHV-11, TEM-1, Compound 5 0.31 mg/L
# [2] = Enterobacter cloacae ECL1058, KPC-3, SHV-11, TEM-1, Compound 5 0.625 mg/L
# [3] = Enterobacter cloacae ECL1059, KPC-3, SHV-12, TEM-1, Compound 5 0.31 mg/L
# [4] = Enterobacter cloacae ECL1059, KPC-3, SHV-12, TEM-1, Compound 5 0.625 mg/L
# [5] = Enterobacter cloacae ECL1059, KPC-3, SHV-12, TEM-1, Compound 5 5 mg/L
# [6] = Enterobacter cloacae ECL1059, KPC-3, SHV-12, TEM-1, Compound 5 10 mg/L
# [7] = Enterobacter cloacae ECL1059, KPC-3, SHV-12, TEM-1, Compound 5 […]
# [8] = Escherichia coli EC1007, KPC-3, Compound 5 0.31 mg/L
# [9] = Escherichia coli EC1007, KPC-3, Compound 5 0.625 mg/L
# [10] = Escherichia coli EC1007, KPC-3, Compound 5 5 mg/L
# [11] = Escherichia coli EC1007, KPC-3, Compound 5 10 mg/L
# [12] = Escherichia coli EC1007, KPC-3, Compound 5 […]
# [13] = Klebsiella oxytoca KX1017, KPC-2, OXA-2, SHV-30, Compound 5 0.31 mg/L
# [14] = Klebsiella oxytoca KX1017, KPC-2, OXA-2, SHV-30, Compound 5 0.625 mg/L
# [15] = Klebsiella oxytoca KX1017, KPC-2, OXA-2, SHV-30, Compound 5 5 mg/L
# [16] = Klebsiella oxytoca KX1017, KPC-2, OXA-2, SHV-30, Compound 5 10 mg/L
# [17] = Klebsiella oxytoca KX1018, KPC-2, SHV-40, OXY-1, Compound 5 0.31 mg/L
# [18] = Klebsiella oxytoca KX1018, KPC-2, SHV-40, OXY-1, Compound 5 0.625 mg/L
# [19] = Klebsiella oxytoca KX1018, KPC-2, SHV-40, OXY-1, Compound 5 […]
# [20] = Klebsiella oxytoca KX1019, KPC-2 OXA-2, Compound 5 0.625 mg/L
# [21] = Klebsiella pneumoniae KP 1004, KPC-2, Compound 5 0.31 mg/L
# [22] = Klebsiella pneumoniae KP 1004, KPC-2, Compound 5 0.625 mg/L
# [23] = Klebsiella pneumoniae KP 1004, KPC-2, Compound 5 5 mg/L
# [24] = Klebsiella pneumoniae KP 1004, KPC-2, Compound 5 10 mg/L
smiles,measurement,setting,value
"O=C(O)C[C@@H]1CC[C@H](NC(=O)Cc2cccs2)B(O)O1 [Compound 5, 2-((3R,6S)-2-hydroxy-3-(2-(thiophen-2-yl)acetamido)-1,2-oxaborinan-6-yl)acetic acid]",potentiation of carbapenems,,significantly potentiate multiple carbapenems
same,MIC of Doripenem,[1],Y (MIC of 0.5 mg/L to 4 mg/L)
same,MIC of Ertapenem,[1],Z (MIC of greater than 4 mg/L)
same,MIC of Doripenem,[2],Y (MIC of 0.5 mg/L to 4 mg/L)
same,MIC of Ertapenem,[2],Z (MIC of greater than 4 mg/L)
same,MIC of Ertapenem,"Enterobacter cloacae ECL1058, KPC-3, SHV-11, TEM-1, Compound 5 5 mg/L",X (MIC of less than 0.5 mg/L)
same,MIC of Ertapenem,"Enterobacter cloacae ECL1058, KPC-3, SHV-11, TEM-1, Compound 5 10 mg/L",X (MIC of less than 0.5 mg/L)
same,MIC of Doripenem,"Enterobacter cloacae ECL1058, KPC-3, SHV-11, TEM-1, Compound 5 […]",Y (MIC of 0.5 mg/L to 4 mg/L)
same,MIC of Doripenem,[3],X (MIC of less than 0.5 mg/L)
same,MIC of Ertapenem,[3],X (MIC of less than 0.5 mg/L)
same,MIC of Doripenem,[4],X (MIC of less than 0.5 mg/L)
same,MIC of Ertapenem,[4],X (MIC of less than 0.5 mg/L)
same,MIC of Biapenem,[5],X (MIC of less than 0.5 mg/L)
same,MIC of Doripenem,[5],X (MIC of less than 0.5 mg/L)
same,MIC of Ertapenem,[5],X (MIC of less than 0.5 mg/L)
same,MIC of Biapenem,[6],X (MIC of less than 0.5 mg/L)
same,MIC of Doripenem,[6],X (MIC of less than 0.5 mg/L)
same,MIC of Ertapenem,[6],X (MIC of less than 0.5 mg/L)
same,MIC of Biapenem,[7],X (MIC of less than 0.5 mg/L)
same,MIC of Doripenem,[7],X (MIC of less than 0.5 mg/L)
same,MIC of Ertapenem,[7],X (MIC of less than 0.5 mg/L)
same,MIC of Doripenem,[8],X (MIC of less than 0.5 mg/L)
same,MIC of Ertapenem,[8],X (MIC of less than 0.5 mg/L)
same,MIC of Doripenem,[9],X (MIC of less than 0.5 mg/L)
same,MIC of Ertapenem,[9],X (MIC of less than 0.5 mg/L)
same,MIC of Doripenem,[10],X (MIC of less than 0.5 mg/L)
same,MIC of Ertapenem,[10],X (MIC of less than 0.5 mg/L)
same,MIC of Biapenem,[11],X (MIC of less than 0.5 mg/L)
same,MIC of Doripenem,[11],X (MIC of less than 0.5 mg/L)
same,MIC of Ertapenem,[11],X (MIC of less than 0.5 mg/L)
same,MIC of Doripenem,[12],X (MIC of less than 0.5 mg/L)
same,MIC of Ertapenem,[12],X (MIC of less than 0.5 mg/L)
same,MIC of Biapenem,[13],Y (MIC of 0.5 mg/L to 4 mg/L)
same,MIC of Doripenem,[13],Y (MIC of 0.5 mg/L to 4 mg/L)
same,MIC of Ertapenem,[13],Y (MIC of 0.5 mg/L to 4 mg/L)
same,MIC of Doripenem,[14],Y (MIC of 0.5 mg/L to 4 mg/L)
same,MIC of Ertapenem,[14],Y (MIC of 0.5 mg/L to 4 mg/L)
same,MIC of Biapenem,[15],X (MIC of less than 0.5 mg/L)
same,MIC of Doripenem,[15],X (MIC of less than 0.5 mg/L)
same,MIC of Ertapenem,[15],X (MIC of less than 0.5 mg/L)
same,MIC of Biapenem,[16],X (MIC of less than 0.5 mg/L)
same,MIC of Doripenem,[16],X (MIC of less than 0.5 mg/L)
same,MIC of Ertapenem,[16],X (MIC of less than 0.5 mg/L)
same,MIC of Biapenem,[17],X (MIC of less than 0.5 mg/L)
same,MIC of Doripenem,[17],X (MIC of less than 0.5 mg/L)
same,MIC of Ertapenem,[17],X (MIC of less than 0.5 mg/L)
same,MIC of Biapenem,[18],X (MIC of less than 0.5 mg/L)
same,MIC of Doripenem,[18],X (MIC of less than 0.5 mg/L)
same,MIC of Ertapenem,[18],X (MIC of less than 0.5 mg/L)
same,MIC of Biapenem,[19],X (MIC of less than 0.5 mg/L)
same,MIC of Doripenem,[19],X (MIC of less than 0.5 mg/L)
same,MIC of Ertapenem,[19],X (MIC of less than 0.5 mg/L)
same,MIC of Ertapenem,"Klebsiella oxytoca KX1019, KPC-2 OXA-2, Compound 5 0.31 mg/L",Y (MIC of 0.5 mg/L to 4 mg/L)
same,MIC of Doripenem,[20],Y (MIC of 0.5 mg/L to 4 mg/L)
same,MIC of Ertapenem,[20],Y (MIC of 0.5 mg/L to 4 mg/L)
same,MIC of Ertapenem,"Klebsiella oxytoca KX1019, KPC-2 OXA-2, Compound 5 5 mg/L",X (MIC of less than 0.5 mg/L)
same,MIC of Ertapenem,"Klebsiella oxytoca KX1019, KPC-2 OXA-2, Compound 5 10 mg/L",X (MIC of less than 0.5 mg/L)
same,MIC of Ertapenem,"Klebsiella oxytoca KX1019, KPC-2 OXA-2, Compound 5 […]",Y (MIC of 0.5 mg/L to 4 mg/L)
same,MIC of Biapenem,[21],X (MIC of less than 0.5 mg/L)
same,MIC of Doripenem,[21],X (MIC of less than 0.5 mg/L)
same,MIC of Ertapenem,[21],Y (MIC of 0.5 mg/L to 4 mg/L)
same,MIC of Biapenem,[22],X (MIC of less than 0.5 mg/L)
same,MIC of Doripenem,[22],X (MIC of less than 0.5 mg/L)
same,MIC of Ertapenem,[22],Y (MIC of 0.5 mg/L to 4 mg/L)
same,MIC of Biapenem,[23],X (MIC of less than 0.5 mg/L)
same,MIC of Doripenem,[23],X (MIC of less than 0.5 mg/L)
same,MIC of Ertapenem,[23],X (MIC of less than 0.5 mg/L)
same,MIC of Biapenem,[24],X (MIC of less than 0.5 mg/L)
same,MIC of Doripenem,[24],X (MIC of less than 0.5 mg/L)
same,MIC of Ertapenem,[24],X (MIC of less than 0.5 mg/L)
